This passage reports IC50 results from patent US11440923B2, “Substituted macrocyclic indole derivatives” (Bayer Aktiengesellschaft, priority 2017, dated 2022).

Each structure is given as a SMILES string. Structures can show the parent of a compound that is named as a salt.

In this assay the target is BCL-2 (Homo sapiens (Human), UniProt P10415). Briefly: Protein-protein interaction assay BCL-2/Bad BH3 peptide (BCL-2 assay, TR-FRET). It is filed as binding. The conditions noted are these: read-out: BCL-2 Assay IC50 (median). The procedure:
Assay 3 Protein-Protein Interaction Assay: BCL-2/Bad BH3 Peptide (BCL-2 Assay)
The dose-dependent inhibition by the compounds described in this invention of the interaction between BCL-2 and the BH3 domain of Bad (both human) was determined using a steady state binding competition assay with time-resolved fluorescence energy transfer (TR-FRET) readout. For that purpose BCL-2 (amino acids 1-211, C-terminal fused to a hexahistidine (6×His) tag (SEQ ID 5) and a synthetic Bad BH3-derived peptide of sequence Biotin-PEG2-PEG2-[…]-Nle-[…]-amide (SEQ ID 4) served as protein receptor and tracer ligand respectively. The recombinant BCL-2 protein (expressed in E. coli) was purchased from BPS Bioscience (San Diego, Calif., USA). The Bad BH3-derived peptide can be obtained from e.g. Biosyntan (Berlin, Germany).
In the assay 11 different concentrations of each compound (0.1 nM, 0.33 nM, 1.1 nM, 3.8 nM, 13 nM, 44 nM, 0.15 μM, 0.51 μM, 1.7 μM, 5.9 μM and 20 μM) were typically measured as duplicates in the same microtiter plate. For that, 100-fold concentrated DMSO solutions were prepared by serial dilutions (1:3.4) of a 2 mM stock solution in a clear, 384-well microtiter plate (Greiner Bio-One, Frickenhausen, Germany). From there, 50 nl were transferred in a dark test plate (Greiner Bio-One, Frickenhausen, Germany). The assay was initiated by addition of 2 μL of a 2,5-fold concentrated His-BCL-2 solution (usually for a 1 nM end concentration in 5 μL reaction volume) in aqueous assay buffer [50 mM Tris/HCl pH 7, 100 mM sodium chloride (NaCl), 50 mM potassium fluoride (KF), 0.005% Tween-20, 2 mM DTT, 0.1% bovine gamma globulin (BGG)] to the compounds in the assay plate. This was followed by a 10-minute incubation step at 22° C. for pre-equilibration of the putative complex between His-BCL-2 and the compounds. After that, 3 μL of a 1.67-fold concentrated solution (in assay buffer) consisting of Bad BH3-derived peptide (1 nM end concentration) and TR-FRET detection reagents [1.67 nM anti-His-Eu cryptate and 1.67 nM streptavidin-XL665 (both from Cisbio Bioassays, Codolet, France)], were added.
The mixture was incubated in the dark for one hour at 22° C. and then overnight at 4° C. The formation of BCL-2/Bad complexes was determined by measuring the resonance energy transfer of the anti-His-Eu-cryptate antibody to the streptavidin-XL665 present in the reaction. For that purpose, the fluorescence emission at 620 nm and 665 nm after excitation at 330-350 nm was measured in a TR-FRET measuring instrument, for instance a Rubystar or a Pherastar (both from BMG Lab Technologies, Offenburg, Germany) or a Viewlux (Perkin-Elmer). The ratio of the emission at 665 nm and at 622 nm was used as indicator of the amount of BCL-2/Bad complexes present.
The resulting data (ratio) were normalized, taking 0% inhibition as the mean value of control measurements (usually 32 data points) where all reagents were included. In this case 50 nl DMSO were used instead of compounds. […] IC50 values were determined by regression analysis based on a 4 parameter equation (minimum, maximum, IC50, Hill; Y=Max+(Min−Max)/(1+(X/IC50)^Hill) using the Screener Software (Genedata).
In general terms: Time-resolved FRET reads energy transfer from a long-lived donor to a nearby acceptor.

BCL-2, sequence (P10415 1-211): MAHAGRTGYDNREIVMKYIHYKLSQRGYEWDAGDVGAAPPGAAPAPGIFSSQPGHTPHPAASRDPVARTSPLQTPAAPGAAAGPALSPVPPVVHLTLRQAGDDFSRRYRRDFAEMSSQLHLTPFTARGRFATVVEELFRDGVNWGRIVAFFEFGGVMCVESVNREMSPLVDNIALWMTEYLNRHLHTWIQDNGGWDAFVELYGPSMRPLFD

Turning to `CCc1c2c(nn1C)C(CCN1CCC(F)(F)C1)OCCCCn1c(C(=O)O)c(CCCOc3cccc4cc(F)ccc34)c3ccc(Cl)c-2c31` (racemic) [Example 55, (rac)-4-chloro-(15-rac)-[2-(3,3-difluoropyrrolidin-1-yl)ethyl]-3-ethyl-7-{3-[(6-fluoronaphthalen-1-yl)oxy]propyl}-2-methyl-2,10,11,12,13,15-hexahydropyrazolo[4′,3′:9,10][1,6]oxazacycloundecino[8,7,6-hi]indole-8-carboxylic acid—2-hydroxypropane-1,2,3-tricarboxylic Acid Salt], the IC50 (commonly the concentration at which inhibition is half-maximal) was greater than 20 µM.

Regarding `CCc1c2c(nn1C)C(CCC1CCOCC1)OCCCCn1c(C(=O)O)c(CCCOc3cccc4cc(F)ccc34)c3ccc(Cl)c-2c31` (racemic) [Example 60, (rac)-4-chloro-3-ethyl-7-{3-[(6-fluoronaphthalen-1-yl)oxy]propyl}-2-methyl-(15-rac)-[2-(oxan-4-yl)ethyl]-2,10,11,12,13,15-hexahydropyrazolo[4′,3′:9,10][1,6]oxazacycloundecino[8,7,6-hi]indole-8-carboxylic Acid], the IC50 worked out at 14.1 µM.

As to `CCc1c2c(nn1C)C(CCN1CCN(C)CC1)OCCCCn1c(C(=O)O)c(CCCOc3cccc4cc(F)ccc34)c3ccc(Cl)c-2c31` (racemic) [Example 68, 4-chloro-3-ethyl-7-{3-[(6-fluoronaphthalen-1-yl)oxy]propyl}-2-methyl-(15-rac)-[2-(4-methylpiperazin-1-yl)ethyl]-2,10,11,12,13,15-hexahydropyrazolo[4′,3′:9,10][1,6]oxazacycloundecino[8,7,6-hi]indole-8-carboxylic Acid—N-ethylethanamine Salt (Mixture 1 of Stereoisomers)], the IC50 is greater than 20 µM.

Consider `CCc1c2c(nn1C)C(CCN1CCN(C)CC1)OCCCCn1c(C(=O)O)c(CCCOc3cccc4cc(F)ccc34)c3ccc(Cl)c-2c31` (racemic) [Example 71, (rac)-4-chloro-3-ethyl-7-{3-[(6-fluoronaphthalen-1-yl)oxy]propyl}-2-methyl-(15-rac)-[2-(4-methylpiperazin-1-yl)ethyl]-2,10,11,12,13,15-hexahydropyrazolo[4′,3′:9,10][1,6]oxazacycloundecino[8,7,6-hi]indole-8-carboxylic Acid—N-ethylethanamine Salt (Mixture 2 Od Stereoisomers)], for which the IC50 is greater than 20 µM.

Regarding `Cc1c2c(nn1C)C(CCN1CCOCC1)OCCCCn1c(C(=O)O)c(CCCOc3cccc4cc(F)ccc34)c3ccc(Cl)c-2c31` (single isomer, unassigned; enantiomer 1) [Example 17, 4-chloro-7-{3-[(6-fluoronaphthalen-1-yl)oxy]propyl}-2,3-dimethyl-15-[2-(morpholin-4-yl)ethyl]-2,10,11,12,13,15-hexahydropyrazolo[4′,3′:9,10][1,6]oxazacycloundecino[8,7,6-hi]indole-8-carboxylic Acid—N-ethylethanamine (Enantiomer 1)], the IC50 was greater than 20 µM.

Take `Cc1c2c(nn1C)C(CCN1CCOCC1)OCCCCn1c(C(=O)O)c(CCCOc3cccc4cc(F)ccc34)c3ccc(F)c-2c31` (single isomer, unassigned; enantiomer 1) [Example 20, 4-fluoro-7-{3-[(6-fluoronaphthalen-1-yl)oxy]propyl}-2,3-dimethyl-15-[2-(morpholin-4-yl)ethyl]-2,10,11,12,13,15-hexahydropyrazolo[4′,3′:9,10][1,6]oxazacycloundecino[8,7,6-hi]indole-8-carboxylic Acid—N-ethylethanamine (Enantiomer 1)]: the concentration for half-maximal inhibition (IC50) is greater than 20 µM.

For the molecule `CCC1OCCCCn2c(C(=O)O)c(CCCOc3cccc4ccccc34)c3ccc(Cl)c(c32)-c2c1nn(C)c2C` (single isomer, unassigned; enantiomer 1) [Example 29, (+)-4-chloro-15-ethyl-2,3-dimethyl-7-{3-[(naphthalen-1-yl)oxy]propyl}-2,10,11,12,13,15-hexahydropyrazolo[4′,3′:9,10][1,6]oxazacycloundecino[8,7,6-hi]indole-8-carboxylic Acid—N-ethylethanamine Salt (Enantiomer 1)], the IC50 is greater than 20 µM.

`Cc1c2c(nn1C)C(C1CC1)OCCCCn1c(C(=O)O)c(CCCOc3cccc4ccccc34)c3ccc(Cl)c-2c31` (single isomer, unassigned; enantiomer 1) [Example 35, (+)-4-chloro-15-cyclopropyl-2,3-dimethyl-7-{3-[(naphthalen-1-yl)oxy]propyl}-2,10,11,12,13,15-hexahydropyrazolo[4′,3′:9,10][1,6]oxazacycloundecino[8,7,6-hi]indole-8-carboxylic Acid N-ethylethanamine Salt (Enantiomer 1)]: the IC50 was greater than 20 µM.

`CCc1c2c(nn1C)C(CCOC)OCCCCn1c(C(=O)O)c(CCCOc3cccc4cc(F)ccc34)c3ccc(Cl)c-2c31` (single isomer, unassigned; enantiomer 1) [Example 42, (+)-4-chloro-3-ethyl-7-{3-[(6-fluoronaphthalen-1-yl)oxy]propyl}-15-(2-methoxyethyl)-2-methyl-2,10,11,12,13,15-hexahydropyrazolo[4′,3′:9,10][1,6]oxazacycloundecino[8,7,6-hi]indole-8-carboxylic Acid—N-ethylethanamine Salt (Enantiomer 1)]: the IC50 is greater than 20 µM.

In the case of `CCc1c2c(nn1C)C(CC(C)(C)O)OCCCCn1c(C(=O)O)c(CCCOc3cccc4cc(F)ccc34)c3ccc(Cl)c-2c31` (single isomer, unassigned; enantiomer 1) [Example 53, (+)-4-chloro-3-ethyl-7-{3-[(6-fluoronaphthalen-1-yl)oxy]propyl}-15-(2-hydroxy-2-methylpropyl)-2-methyl-2,10,11,12,13,15-hexahydropyrazolo[4′,3′:9,10][1,6]oxazacycloundecino[8,7,6-hi]indole-8-carboxylic Acid—N-ethylethanamine Salt (Enantiomer 1)], the IC50 is 17 µM.

In the case of `CCc1c2c(nn1C)C(CCN1CCC(F)(F)C1)OCCCCn1c(C(=O)O)c(CCCOc3cccc4cc(F)ccc34)c3ccc(Cl)c-2c31` (single isomer, unassigned; enantiomer 1) [Example 56, 4-chloro-15-[2-(3,3-difluoropyrrolidin-1-yl)ethyl]-3-ethyl-7-{3-[(6-fluoronaphthalen-1-yl)oxy]propyl}-2-methyl-2,10,11,12,13,15-hexahydropyrazolo[4′,3′:9,10][1,6]oxazacycloundecino[8,7,6-hi]indole-8-carboxylic Acid—N-ethylethanamine Salt (Enantiomer 1)], the IC50 was greater than 20 µM.

Consider `Cc1c2c(nn1C)C(CCN1CCOCC1)OCCCCn1c(C(=O)O)c(CCCOc3cccc4ccccc34)c3ccc(F)c-2c31` (single isomer, unassigned; enantiomer 2) [Example 9, 4-fluoro-2,3-dimethyl-15-[2-(morpholin-4-yl)ethyl]-7-{3-[(naphthalen-1-yl)oxy]propyl}-2,10,11,12,13,15-hexahydropyrazolo[4′,3′:9,10][1,6]oxazacycloundecino[8,7,6-hi]indole-8-carboxylic Acid—N-ethylethanamine Salt (Enantiomer 2)], for which the IC50 was greater than 20 µM.

As for `CCc1c2c(nn1C)C(CCN1CCOCC1)OCCCCn1c(C(=O)O)c(CCCOc3cccc4ccccc34)c3ccc(F)c-2c31` (single isomer, unassigned; enantiomer 2) [Example 12, 3-ethyl-4-fluoro-2-methyl-15-[2-(morpholin-4-yl)ethyl]-7-{3-[(naphthalen-1-yl)oxy]propyl}-2,10,11,12,13,15-hexahydropyrazolo[4′,3′:9,10][1,6]oxazacycloundecino[8,7,6-hi]indole-8-carboxylic Acid—N-ethylethanamine Salt (Enantiomer 2)], the IC50 is greater than 20 µM.
